Laboratory results taken from US10130618B2, “Pharmaceutical combinations of dabigatran and proton pump inhibitors” (SANOVEL ILAC SANAYI VE TICARET ANONIM SIRKETI, priority 2014, dated 2018).

What was measured:
[1] = DSC analysis of 1:1 API mixtures (compatibility with Dabigatran etexilate mesylate); format: physicochemical; conditions: for DSC peak temperature of the mixture (peak shifting) / Compatibility by DSC: 1:1 mixture with Dabigatran etexilate mesylate; for DSC peak temperature of the mixture (peak shifting): 10° C./min, 30° C. to 300° C.; for Compatibility by DSC: characteristic peaks not determined; for Pharmaceutical incompatibility (discussion of DSC): with Dabigatran etexilate mesylate
Description: (§1) DSC Analysis: DSC scan of about 2 mg using an automatic thermal analyzer system performed accurately weighed of APIs (Dabigatran etexilate, Dabigatran etexilate mesylate, Esomeprazole, Dexlansoprazole) of 1:1 in ratio respectively. DSC scans performed with 10° C. per minute heat flow from 30° C. to 300° C. The peak shifting of active ingredients was determined by DSC analysis.
(§2) Method Log: • 1: Pan Type: Aluminum hermetic • 2: Equilibrate at 30.00° C. • 3: Ramp 10.00 ° C./min to 300.00° C. • 4: End of method
(§3) Results (Thermograms): • FIG. 1. Thermogram of Dabigatran etexilate • FIG. 2. Thermogram of Dabigatran etexilate mesylate • FIG. 3. Thermogram of Esomeprazole • FIG. 4. Thermogram of Dexlansoprazole • FIG. 5. Thermogram of Dabigatran etexilate: Esomeprazole • FIG. 6. Thermogram of Dabigatran etexilate mesylate: Esomeprazole • FIG. 7. Thermogram of Dabigatran etexilate: Dexlansoprazole • FIG. 8. Thermogram of Dabigatran etexilate mesylate: Dexlansoprazole
(§4) Discussion: The characteristic degradation and melting peaks of active ingredients were not determined. It indicates pharmaceutical incompatibility of esomeprazole and dexlansoprazole with Dabigatran etexilate and Dabigatran etexilate mesylate.

[2] = DSC analysis of 1:1 API mixtures (compatibility with Dabigatran etexilate); format: physicochemical; conditions: for DSC peak temperature of the mixture (peak shifting) / Compatibility by DSC: 1:1 mixture with Dabigatran etexilate; for DSC peak temperature of the mixture (peak shifting): 10° C./min, 30° C. to 300° C.; for Compatibility by DSC: characteristic peaks not determined; for Pharmaceutical incompatibility (discussion of DSC): with Dabigatran etexilate
Description: as §1, §2, §3, §4

Row | SMILES | DSC peak temperature of the mixture (peak shifting) [1] | Compatibility by DSC [1] | Pharmaceutical incompatibility (discussion of DSC) [1] | DSC peak temperature of the mixture (peak shifting) [2] | Compatibility by DSC [2] | Pharmaceutical incompatibility (discussion of DSC) [2]
1 | Cc1c(OCC(F)(F)F)ccnc1C[S@@+]([O-])c1nc2ccccc2[nH]1 [Dexlansoprazole, (+)-2-[(R)-{[3-methyl-4-(2,2,2-trifluoroethoxy)pyridin-2-yl]methyl}sulfinyl]-1H-benzimidazole] | 82 °C | incompatible. | incompatibility | 87 °C | incompatible. | incompatibility
2 | COc1ccc2nc([S@@+]([O-])Cc3ncc(C)c(OC)c3C)[nH]c2c1 [Esomeprazole, (S)-5-methoxy-2-[(4-methoxy-3,5-dimethylpyridin-2-yl)methylsulfinyl]-3H-benzoimidazole] | 176 °C | incompatible. | incompatibility | 174 °C | incompatible. | incompatibility
